# Reference: PubChem BioAssay AID1996
# Details: buffer; pH 7.4; 200.0 µM
row,SMILES,solubility kinetic
1,COc1ccc(CCNC(=O)CCc2ccsc2)cc1OC,> 47.9 µg/mL
2,O=C1CC2c3ccccc3C1C1C(=O)N(Cc3ccccc3)C(=O)C21 (stereo not drawn),> 49.7 µg/mL
3,CCN(CC)CCn1c(N)nc2ccccc21.Cl,44.7 µg/mL
4,CN(C)CCNC(=S)NC1CCCCC1,32.7 µg/mL
5,NC(=O)c1cccnc1Oc1ccccc1,28.8 µg/mL
6,Cc1cc(Nc2ccccc2)n(-c2ccc(C(=O)O)cc2)n1,> 44 µg/mL
7,O=S(=O)(c1ccc(-c2ccon2)s1)N1CCOCC1,> 45.1 µg/mL
8,Cl.O=C(CCCN1CCOC(c2ccccc2)C1)c1ccc(F)cc1 (stereo not drawn),50.3 µg/mL
9,COc1ccc(CCC(=O)NCCc2nc3ccccc3[nH]2)cc1,8.8 µg/mL
10,CCOc1cccc(N2C(=O)/C(=C/c3ccco3)C(=O)NC2=S)c1,12.3 µg/mL
11,CCOC(=O)C(=O)N(CC)C1CCS(=O)(=O)C1 (stereo not drawn),> 39.5 µg/mL
12,Cc1onc(-c2c(F)cccc2Cl)c1C(=O)N=C(N)N1CCCC1,5 µg/mL
13,COc1ccc(CNC(=O)N[C@@H](CC(C)C)C(=O)O)cc1OC,> 48.7 µg/mL
14,CN(CC1CCCN(CCc2ccc(F)cc2)C1)C(=O)CCC(F)(F)F (stereo not drawn),48.5 µg/mL
15,O=C(NCc1ccc2c(c1)OCO2)c1cc(Cl)ccc1Cl,1.7 µg/mL
16,CC(C)(C)OC(=O)N1CCCN(C(=O)Nc2cccc(Cl)c2)CC1,51.4 µg/mL
17,Oc1cc2c(cc1CN1CCN(c3ccccc3)CC1)OCO2,17.6 µg/mL
18,CC1COC(Cn2c3ccccc3c3ccccc32)O1 (stereo not drawn),12.1 µg/mL
19,O=C(CCN1CCN(CCO)CC1)Nc1cccc(Br)c1,> 53.4 µg/mL
20,C=CCc1cccc(CNc2ccc(Br)cc2)c1O,1.4 µg/mL
21,COc1cccc(-n2c(-c3ccccc3)c[nH]c2=S)c1,7.8 µg/mL
22,CCC(=O)NNc1nc2c(F)cccc2s1,> 35.9 µg/mL
23,Cc1ccc(S(=O)(=O)N2CC(C)C(=O)CC2C)cc1 (stereo not drawn),38.6 µg/mL
24,CC(Cc1ccccc1)NC=O (stereo not drawn),24.4 µg/mL
25,O=C(NC1CCN(S(=O)(=O)c2ccc(F)cc2)CC1)c1ccco1,17.5 µg/mL

row,SMILES,solubility kinetic
1,CCNc1nc(NCC)nc(N(CC)C(N)=S)n1,10 µg/mL
2,Cc1cc(C(=O)Nc2ccc(OCc3ccccc3)cc2)c(C)o1,< 0.7 µg/mL
3,COc1ccc(S(=O)(=O)N2CCOCC2)cc1NC(=O)CN1C(=O)CN(C)C1=O,> 64 µg/mL
4,O=C(NC(=S)Nc1cc([N+](=O)[O-])ccc1O)C1CC1,> 42.2 µg/mL
5,CC(C)(CNCc1ccccc1)NS(=O)(=O)c1ccccc1,> 47.8 µg/mL
6,CCOC(=O)c1nsnc1NCCCl,22.7 µg/mL
7,COc1ccc(/C=C/C(=O)N2CC(C)OC(C)C2)cc1OC (stereo not drawn),45.4 µg/mL
8,Cc1ccc2cc(NC(=O)Cc3ccccc3)ccc2n1,32.6 µg/mL
9,Cc1cccc(-c2nc3cc([N+](=O)[O-])ccc3o2)c1,< 0.3 µg/mL
10,CN1CCCN(C(=O)CNC(=O)c2ccccc2Br)CC1,> 53.1 µg/mL
11,COC(=O)[C@@H](NC(=O)N1CCC(C)CC1)C(C)C,34 µg/mL
12,Cc1ccccc1NC(=O)N1CCCN(c2ccc(C#N)cn2)CC1,> 50.3 µg/mL
13,CCCN(CCC)C(=O)c1cc2c(=O)[nH]c3ccc(C)cc3c2s1,< 0.4 µg/mL
14,COc1c2c(nc3occc13)C(CC=C(C)C)(OC)C(=O)C=C2 (stereo not drawn),> 47 µg/mL
15,O=C1Nc2ccccc2Nc2ccccc21,20.9 µg/mL
16,O=C(NCCNC(=O)c1ccccn1)c1ccc(F)cc1,> 43.1 µg/mL
17,CN(c1ccc(C(=O)COC(=O)C2CC2)cc1)S(C)(=O)=O,> 46.7 µg/mL
18,Cc1cc(OCC(=O)OCC(=O)NCc2cccs2)ccc1Cl,14 µg/mL
19,Cc1cc(S(=O)(=O)NCc2cccnc2)ccc1F,33.7 µg/mL
20,COc1ccc(OC)c(NC(=O)CCCc2ccccc2)c1,24.5 µg/mL
21,CCn1c(=O)c(C(=O)Nc2ccc(C)cc2C)c(O)c2ccccc21,< 0.4 µg/mL
22,COc1cc(C(=O)Nc2ccc(C(=O)O)cc2)ccc1OC(C)=O,> 49.4 µg/mL
23,Cc1cc(C)c(C(=O)CN2C(=O)NC3(CCCCC3)C2=O)cc1C,2 µg/mL
24,Cc1ccnc(SCC(=O)N2CCCc3ccccc32)n1,> 44.9 µg/mL
25,O=C(c1ccc([N+](=O)[O-])cc1Cl)N1CCN(c2ccccn2)CC1,> 52 µg/mL

row,SMILES,solubility kinetic
1,CC1CCCCN1C(=O)COc1ccc2ccc(=O)oc2c1 (stereo not drawn),36.4 µg/mL
2,CC1CC(C)CN(C(=O)CN2C(=O)NC3(CCCCCC3)C2=O)C1 (stereo not drawn),> 50.3 µg/mL
3,Oc1cccc(C=Nc2cccc3ccccc23)c1O,18.3 µg/mL
4,CC(=O)Nc1ccc(S(=O)(=O)Nc2ccc(Cl)cn2)cc1,46.3 µg/mL
5,Cc1cc(C)cc(C(=O)NCC(=O)OCC(=O)NC2CC2)c1,> 45.7 µg/mL
6,COc1ccc(N/C(=N/c2nc(C)cc(C)n2)NC(=O)c2ccccc2)cc1,0.3 µg/mL
7,COCCOC(=O)c1sc2nc[nH]c(=O)c2c1C,> 40.2 µg/mL
8,O=c1[nH]c2ccccc2nc1NCc1ccccc1,3.9 µg/mL
9,CCN(CC)CC#CCC(O)(c1ccccc1)c1ccccc1,> 46.1 µg/mL
10,C/C(=N\OC(=O)c1ccccc1)c1c(C)nc2cc(C)ccn12,44.7 µg/mL
11,O=C1OC(c2ccc(F)cc2)=N/C1=C\c1ccc(Br)o1,9.6 µg/mL
12,CO/N=C/C=C1/N(C)c2ccccc2C1(C)C,19.4 µg/mL
13,O=C(N/N=C/c1ccc2c(c1)OCO2)C1CC1,> 34.8 µg/mL
14,O=C(NCCN1CCCCC1)Nc1ccccc1Cl,> 42.3 µg/mL
15,COc1cccc(NC(=O)C2=COCCO2)c1,> 35.3 µg/mL
16,CSc1ncccc1C(=O)Nc1ccc(C)cn1,> 38.9 µg/mL
17,Cc1nn(CC(=O)NC2CCC(C)CC2)c(=O)c(C#N)c1C (stereo not drawn),> 45.4 µg/mL
18,Fc1cccc2sc(N3CCCC3)nc12,17.4 µg/mL
19,CCOc1ccc2oc(C(=O)OCC(=O)NC(=O)NC)c(C)c2c1,1.9 µg/mL
20,CN(Cc1ccc(F)cc1)C(=O)CNC(=O)C1CCCCC1,> 46 µg/mL
21,Cc1ccc2oc(=O)c(/C=C(\O)c3ccccc3)nc2c1,36.8 µg/mL
22,O=C(Cc1ccccc1)Nc1ccc(Cl)cn1,21.5 µg/mL
23,Cl.O=[N+]([O-])c1cccc(CNCc2ccccc2)c1,40.2 µg/mL
24,Cc1ccccc1C(=O)Nc1cccc(NC(=O)c2cccs2)c1,17.7 µg/mL
25,O=C(COc1cccc(C(F)(F)F)c1)Nc1cccnc1,> 44.4 µg/mL

row,SMILES,solubility kinetic
1,CCCn1c(N)c(N2CCCCC2)c(=O)n(CC(=O)Nc2ccccc2C(F)(F)F)c1=O,7.7 µg/mL
2,CNC(=S)SCCOc1ccccc1,17.5 µg/mL
3,O=C1c2cccc3cc([N+](=O)[O-])cc(c23)C(=O)N1CC1CCCO1 (stereo not drawn),5.7 µg/mL
4,Cc1nn(-c2ccccc2)c(-c2ccccc2[N+](=O)[O-])c1C(=O)O,> 48.5 µg/mL
5,COc1ccc(NC(=O)C2CCCN(c3ncccn3)C2)cc1 (stereo not drawn),14.5 µg/mL
6,COc1ccccc1NC(=O)/C(=C/c1ccncc1)NC(=O)c1ccccc1,22.2 µg/mL
7,CC(=O)c1c(C)[nH]c(C(=O)NCCc2c[nH]c3ccccc23)c1C,1.4 µg/mL
8,Cc1ccc(-c2sc(-c3cccnc3)nc2CC(=O)O)cc1,> 46.6 µg/mL
9,CC(=O)c1cccc(OCC(O)CNCC2CCCCC2)c1 (stereo not drawn),> 45.8 µg/mL
10,CCN1CCN(c2nc(Nc3cccc(F)c3)nc(N)c2[N+](=O)[O-])CC1,> 54.2 µg/mL
11,Cc1cccc(OCC(=O)NCCNC(=O)c2ccco2)c1,45 µg/mL
12,Cc1ccc(C(=O)NCCNC(=O)c2ccco2)cn1,31.7 µg/mL
13,O=C(Nc1ccccc1)/C(=C/c1ccccc1)NC(=O)c1ccco1,1.2 µg/mL
14,O=C(CNC(=O)c1cccs1)OCc1c(F)cccc1Cl,42.4 µg/mL
15,O=C(O)CCSc1nc2ccccc2n1Cc1ccccc1,43.7 µg/mL
16,Cc1ccsc1/C=C(\C#N)C(=O)NCCCN1CCOCC1,45.7 µg/mL
17,CCCSc1nc2ccccc2n1CC(=O)O,> 37.5 µg/mL
18,Cc1nc(NC(=O)CSC2=NCCS2)sc1C(=O)N(C)C,> 51.7 µg/mL
19,Cc1nnc(NC(=O)CSc2nccn2-c2ccc(F)cc2)s1,> 52.4 µg/mL
20,COc1ccc(-c2cc(C(=O)NCc3cccs3)no2)cc1,0.3 µg/mL
21,COc1ccccc1CNS(=O)(=O)c1cccs1,> 42.5 µg/mL
22,Cc1cccc(C)c1NC(=O)CC(C)c1ccccc1 (stereo not drawn),12.8 µg/mL
23,CCc1ccc(S(=O)(=O)Nc2ccccn2)cc1,> 39.3 µg/mL
24,NC(=O)NC(=O)C(Nc1ccc2c(c1)CCC2)c1ccccc1 (stereo not drawn),7.9 µg/mL
25,CCN(c1ccccc1)c1nc(=O)c2cccnc2s1,> 42.5 µg/mL

row,SMILES,solubility kinetic
1,O=C(CCc1ccccc1)NCCc1ccc(F)cc1,37.4 µg/mL
2,CCOC(=O)C1CCCN(CC(=O)Nc2cccc(C(C)=O)c2)C1 (stereo not drawn),46 µg/mL
3,CCOC(=O)C1CCCN(S(=O)(=O)c2c(C)noc2C)C1 (stereo not drawn),> 47.5 µg/mL
4,N/C(=N\OC(=O)CCCc1ccccc1)c1ccccc1,7.2 µg/mL
5,C=CCCCCCCCCC(=O)Nc1ncccn1,6.8 µg/mL
6,CCN(Cc1ccncc1)C(=O)Cc1cccs1,> 39.1 µg/mL
7,O=C(CCCc1nc2ccccc2s1)NCc1cccnc1,> 46.7 µg/mL
8,Cc1nc(SCc2cccc(F)c2)c2oc3ccccc3c2n1,< 0.3 µg/mL
9,O=C(NCCCNC(=O)c1ccccc1)c1ccccc1,> 42.4 µg/mL
10,COc1ccc(CCNC(=S)NCCc2ccc(OC)c(OC)c2)cc1OC,> 60.7 µg/mL
11,CC(NC(=O)CN1CCN(c2ccccc2F)CC1)c1ccccc1 (stereo not drawn),46.3 µg/mL
12,Cc1nc(CSc2n[nH]c(=O)n2-c2cccc(F)c2)cs1,> 48.4 µg/mL
13,O=C(Nc1cc(C(F)(F)F)ccc1-n1cncn1)C1CC1,> 44.4 µg/mL
14,COCCOC(=O)C(CC(=O)O)NCc1ccco1 (stereo not drawn),> 40.7 µg/mL
15,COc1cc(NC(C)CCc2ccccc2)cc(OC)c1OC (stereo not drawn),> 47.3 µg/mL
16,O=C(NCCc1c[nH]c2ccccc12)c1ccc(Br)o1,45.7 µg/mL
17,CCCn1cc(C(=O)OCC)c(=O)c2cc(F)c(F)cc21,34.9 µg/mL
18,CC(=O)Oc1ccc2oc(-c3ccccc3)c(C(N)=O)c2c1,1.4 µg/mL
19,CC1(C)CC(=O)C2=C(C1)OC(N)=C(C#N)C2c1ccc[nH]1 (stereo not drawn),> 42.5 µg/mL
20,CCOC(=O)c1sc(NC(=O)c2ccc(OC(C)=O)cc2)nc1C,0.7 µg/mL
21,CSc1ncccc1C(=O)OCC(=O)Nc1nc(C)c(Cl)cc1Cl,10 µg/mL
22,COc1cccc2cc(C(=O)N3CCCc4ccccc43)oc12,15.3 µg/mL
23,O=C(Nc1nc2ccsc2c(=O)s1)c1ccc(F)cc1,< 0.3 µg/mL
